Key:
Assay in all cases: Test B pre-/postemergence plant response
Format in all cases: in vivo
[1] = system: sunflower (common oilseed sunflower, Helianthus annuus); settings: Preemergence; for Sunflower plant response rating: 250 g ai/ha, 0 to 100 scale
Summary of the method: (§1)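 Pre-em in loam/sand; post-em at 1–4 leaf (2–18 cm) in peat mix. Solvent + surfactant formulation. Greenhouse 13–15 d; visual % control vs untreated, 0–100.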

[2] = system: nightshade (eastern black nightshade, Solanum ptycanthum); settings: Preemergence; for Nightshade plant response rating: 250 g ai/ha, 0 to 100 scale
Summary of the method: as §1

[3] = system: galium (catchweed bedstraw, Galium aparine)
Summary of the method: as §1

[4] = 31 g ai/ha, scale 0 to 100 (0 no effect, 100 complete control)
[5] = 62 g ai/ha, scale 0 to 100 (0 no effect, 100 complete control)
[6] = 125 g ai/ha, scale 0 to 100, 0 no effect, 100 complete control
[7] = 250 g ai/ha, Preemergence, 0 to 100 scale
[8] = Preemergence, 31 g ai/ha, scale 0 to 100 (0 no effect, 100 complete control)
[9] = Preemergence, 62 g ai/ha, scale 0 to 100 (0 no effect, 100 complete control)
[10] = Preemergence, 125 g ai/ha, scale 0 to 100, 0 no effect, 100 complete control
[11] = Preemergence, 250 g ai/ha, 0 to 100 scale
[12] = Postemergence, 31 g ai/ha, 0 to 100 scale (0 no effect, 100 complete control)
[13] = Postemergence, 125 g ai/ha, scale 0 to 100 (0 no effect, 100 complete control)
[14] = Postemergence, 250 g ai/ha, scale 0 to 100 (0 no effect, 100 complete control), 13 to 15 days
[15] = Postemergence, 62 g ai/ha, scale 0 to 100 (0 no effect, 100 complete control)

| Molecule | Sunflower plant response rating (0 to 100 scale) ([1]; 0 is no effect, 100 is complete control, rated after 13 to 15 days, application rate of this section not shown) | Plant response rating, Nightshade [2, 4] | Plant response rating, Nightshade [2, 5] | Plant response rating, Nightshade [2, 6] | Plant response rating, Galium [3, 7] | Plant response rating, Galium [3, 8] | Plant response rating, Galium [3, 9] | Plant response rating, Galium [3, 10] | Plant response rating, Sunflower [1, 4] | Plant response rating, Sunflower [1, 5] | Plant response rating, Sunflower [1, 6] | Nightshade plant response rating [2] | Galium plant response rating [3, 11] | Sunflower plant response rating [1] | Plant response rating, Galium [3, 12] | Plant response rating, Galium [3, 13] | Plant response rating, Galium [3, 14] | Plant response rating, Galium [3, 15] |
| --- | --- | --- | --- | --- | --- | --- | --- | --- | --- | --- | --- | --- | --- | --- | --- | --- | --- | --- |
| 5-[(2-hydroxy-6-oxo-1-cyclohexen-1-yl)carbonyl]-2,3-diphenyl-4(3H)-pyrimidinone [Compound 2] | 0 | – | – | – | – | – | – | – | – | – | – | – | – | – | – | – | – | – |
| Cc1cc(-n2c(-c3ccccc3)ncc(C(=O)C3=C(O)CCCC3=O)c2=O)ccc1F [Compound 53] | – | 98 | 98 | 100 | 90 | 0 | 0 | 0 | 15 | 55 | 65 | – | – | – | – | – | – | – |
| Cn1c(-c2ccccc2)ncc(C(=O)C2=C(O)CCCC2=O)c1=O [Compound 55] | – | 60 | 98 | 100 | 85 | 0 | 0 | 20 | 10 | 60 | 60 | – | – | – | – | – | – | – |
| O=C1CCCC(O)=C1C(=O)c1cnc(-c2ccsc2)n(-c2ccccc2)c1=O [Compound 56] | – | 85 | 98 | 98 | 85 | 0 | 0 | 60 | 0 | 60 | 65 | – | – | – | – | – | – | – |
| CCCCc1ncc(C(=O)C2=C(O)CCCC2=O)c(=O)n1-c1cccc(C)c1 [Compound 63] | – | 80 | 95 | 98 | 20 | 0 | 0 | 0 | 5 | 15 | 20 | – | – | – | – | – | – | – |
| O=C1CCCC(O)=C1C(=O)c1cnc(-c2cccc(Cl)c2)n(-c2ccc(Cl)cc2)c1=O [Compound 64] | – | 55 | 85 | 95 | 70 | 0 | 0 | 30 | 0 | 0 | 0 | – | – | – | – | – | – | – |
| CCCCc1ncc(C(=O)C2=C(O)CCCC2=O)c(=O)n1-c1ccc(C)cc1 [Compound 67] | – | 70 | 95 | 95 | 90 | 0 | 35 | 85 | 0 | 20 | 35 | – | – | – | – | – | – | – |
| CCCc1ncc(C(=O)C2=C(O)CCCC2=O)c(=O)n1-c1ccccc1C [Compound 73] | – | 75 | 95 | 98 | 85 | – | 30 | 80 | 0 | 20 | 70 | – | – | – | – | – | – | – |
| CCCc1ncc(C(=O)C2=C(O)CCCC2=O)c(=O)n1CC1CCCO1 (stereo not shown) [Compound 74] | – | 85 | 98 | 98 | – | 20 | 30 | 40 | 0 | 55 | 70 | 100 | 98 | 85 | – | – | – | – |
| CCCn1c(-c2cccs2)ncc(C(=O)C2=C(O)CCCC2=O)c1=O [Compound 77] | – | 98 | 98 | 98 | – | 0 | 20 | 85 | 60 | 75 | 75 | 100 | 90 | 85 | – | – | – | – |
| COCCn1c(-c2cc(F)cc(F)c2)ncc(C(=O)C2=C(O)CCCC2=O)c1=O [Compound 119] | – | 90 | 98 | 98 | – | 65 | 85 | 90 | 40 | 60 | 70 | 100 | 100 | 85 | – | – | – | – |
| COCCCn1c(-c2cc(F)cc(F)c2)ncc(C(=O)C2=C(O)CCCC2=O)c1=O [Compound 120] | – | 90 | 95 | 95 | – | 80 | 90 | 95 | 45 | – | 85 | 98 | 98 | 95 | – | – | – | – |
| Cc1ccc(Cl)cc1-n1c(-c2cccc(F)c2)ncc(C(=O)C2=C(O)CCCC2=O)c1=O [Compound 184] | – | – | – | – | – | – | – | – | – | – | – | – | – | – | 50 | 60 | 60 | – |
| O=C1CCCC(O)=C1C(=O)c1cnc(-c2cccc(F)c2)n(C2CCCCC2)c1=O [Compound 187] | – | – | – | – | – | – | – | – | – | – | – | – | – | – | 20 | 55 | 85 | – |
| O=C1CCCC(O)=C1C(=O)c1cnc(-c2cccs2)n(C2CCCCC2)c1=O [Compound 189] | – | – | – | – | – | – | – | – | – | – | – | – | – | – | 20 | 85 | 85 | – |
| CCCn1c(-c2cccc(Cl)c2)ncc(C(=O)C2=C(O)CCCC2=O)c1=O [Compound 190] | – | – | – | – | – | – | – | – | – | – | – | – | – | – | 50 | 60 | 85 | – |
| Cc1cc(-n2c(-c3cccc(F)c3)ncc(C(=O)C3=C(O)CCCC3=O)c2=O)ccc1F [Compound 191] | – | – | – | – | – | – | – | – | – | – | – | – | – | – | 20 | 60 | 60 | 40 |
| O=C1CCCC(O)=C1C(=O)c1cnc(-c2ccc(F)cc2)n(C2CCCCC2)c1=O [Compound 197] | – | – | – | – | – | – | – | – | – | – | – | – | – | – | 75 | – | 80 | 75 |
| COc1ccc(-n2c(-c3ccccc3)ncc(C(=O)C3=C(O)CCCC3=O)c2=O)cc1OC [Compound 218] | – | 98 | 98 | 100 | – | 60 | 80 | 95 | 75 | 80 | 90 | 100 | 100 | 95 | – | – | – | – |
| CCc1ccc(-n2c(-c3ccccc3)ncc(C(=O)C3=C(O)CCCC3=O)c2=O)cc1 [Compound 219] | – | 90 | 98 | 100 | – | 75 | 85 | 98 | 0 | 45 | 80 | 100 | 100 | 85 | – | – | – | – |
| CCc1ccccc1-n1c(-c2ccccc2)ncc(C(=O)C2=C(O)CCCC2=O)c1=O [Compound 255] | – | 75 | 90 | 100 | – | 0 | 50 | 60 | 45 | 60 | 75 | 100 | 100 | 90 | – | – | – | – |

From US8952024B2, “Herbicidal pyrimidone derivatives” (E I du Pont de Nemours and Company, priority 2009, dated 2015)
